Data reported in patent publication US20190085024A1, “Alpha-Ketoamide Inhibitors Of Cysteine Proteases” (Phelix Therapeutics, priority 2017, published 2019).

What was measured:
Cathepsin L = Cathepsin L (Homo sapiens, UniProt P07711); assay: Cathepsin L enzyme assay; type: biochemical; conditions: Ki by Morrison equation; pH 5.5, substrate Z-Phe-Arg-Amc; read-out: Cat L
Text: Two wells contained DMSO only for controls.
Velocity was converted to μM/sec.

Calpain = Calpain enzyme assay; type: biochemical; conditions: Ki by Morrison equation; pH 7.5, 5 mM CaCl2

Sequence of Cathepsin L (P07711 114-333, species assumed): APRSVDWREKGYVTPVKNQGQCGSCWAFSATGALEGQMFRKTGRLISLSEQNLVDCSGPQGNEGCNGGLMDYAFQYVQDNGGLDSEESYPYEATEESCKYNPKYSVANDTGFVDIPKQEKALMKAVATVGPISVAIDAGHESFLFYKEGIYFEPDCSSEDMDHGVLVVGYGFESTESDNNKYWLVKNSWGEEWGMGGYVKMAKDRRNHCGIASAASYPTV

| SMILES | Ki (Cathepsin L) [nM] | Ki (Calpain) [nM] |
| --- | --- | --- |
| CCC(C)C(NC(=O)C(CC(C)C)NC(=O)Cc1ccncc1)C(=O)C(=O)NCC(=O)NC(Cc1ccc2ccccc2c1)C(N)=O (centres unmarked) [PHELIX333, N-(2-((1-amino-3-(naphthalen-2-yl)-1-oxopropan-2-yl)amino)-2-oxoethyl)-4-methyl-3-(4-methyl-2-(2-(pyridin-4-yl)acetamido)pentanamido)-2-oxohexanamide] | 0.59 | 0.98 |
| CCC(C)C(NC(=O)C(CC(C)C)NC(=O)NCc1ccccc1)C(=O)C(=O)NCC(=O)NC(Cc1ccc2ccccc2c1)C(N)=O (centres unmarked) [PHELIX334, N-(2-((1-amino-3-(naphthalen-2-yl)-1-oxopropan-2-yl)amino)-2-oxoethyl)-3-(2-(3-benzylureido)-4-methylpentamido)-4-methyl-2-oxohexanamide] | 0.43 | 0.67 |
| CCC(C)C(NC(=O)C(CC(C)C)NC(=O)Nc1ccccc1)C(=O)C(=O)NCC(=O)NC(Cc1ccc2ccccc2c1)C(N)=O (centres unmarked) [PHELIX335, N-(2-((1-amino-3-(naphthalen-2-yl)-1-oxopropan-2-yl)amino)-2-oxoethyl)-4-methyl-3-(4-methyl-2-(3-phenylureido)pentanamido)-2-oxohexanamide] | < 0.15 | 1.45 |
| CCC(C)C(NC(=O)C(CC(C)C)NC(=O)OCc1ccccc1)C(=O)C(=O)NC(CC#N)C(=O)NC(Cc1ccc2ccccc2c1)C(N)=O (centres unmarked) [PHELIX336, benzyl (1-((1-((1-((1-amino-3-(naphthalen-2-yl)-1-oxopropan-2-yl)amino)-3-cyano-1-oxopropan-2-yl)amino)-4-methyl-1,2-dioxohexan-3-yl)amino)-4-methyl-1-oxopentan-2-yl)carbamate] | 4.04 | 33.6 |
| CC[C@H](C)C(NC(=O)[C@H](CC#N)NC(=O)Cc1ccccc1)C(=O)C(=O)NCC(=O)N[C@@H](Cc1ccc2ccccc2c1)C(N)=O (some centres unmarked) [PHELIX337, N-(2-((1-amino-3-(naphthalen-2-yl)-1-oxopropan-2-yl)amino)-2-oxoethyl)-3-(3-cyano-2-(2-phenylacetamido)propanamido)-4-methyl-2-oxohexanamide] | 8.48 | 224 |
| CCC(C)C(NC(=O)C(CC(C)C)NC(=O)OCc1ccccc1)C(=O)C(=O)NC(CCCNC(N)=O)C(N)=O (centres unmarked) [PHELIX340, benzyl (1-((1-((1-amino-1-oxo-5-ureidopentan-2-yl)amino)-4-methyl-1,2-dioxohexan-3-yl)amino)-4-methyl-1-oxopentan-2-yl)carbamate] | 3.88 | 17.1 |
| CCC(C)C(NC(=O)C(CC(C)C)NC(=O)OCc1ccccc1)C(=O)C(=O)NC(CCCNC(N)=O)C(N)=O (centres unmarked) [PHELIX341, benzyl (1-((1-((1-amino-1-oxo-5-ureidopentan-2-yl)amino)-4-methyl-1,2-dioxohexan-3-yl)amino)-4-methyl-1-oxopentan-2-yl)carbamate] | 27.9 | 23.4 |
| CCC(C)C(NC(=O)C(CC(C)C)NC(=O)OCc1ccccc1)C(=O)C(=O)NC(Cc1ccncc1)C(N)=O (centres unmarked) [PHELIX342, benzyl (1-((1-((1-amino-1-oxo-3-(pyridin-4-yl)propan-2-yl)amino)-4-methyl-1,2-dioxohexan-3-yl)amino)-4-methyl-1-oxopentan-2-yl)carbamate] | 31.3 | 20.2 |
| CCC(C)C(NC(=O)C(CC(C)C)NC(=O)OCc1ccccc1)C(=O)C(=O)NC(Cc1cc2ccccc2[nH]1)C(N)=O (centres unmarked) [PHELIX343, benzyl (1-((1-((1-amino-3-(1H-indol-2-yl)-1-oxopropan-2-yl)amino)-4-methyl-1,2-dioxohexan-3-yl)amino)-4-methyl-1-oxopentan-2-yl)carbamate] | 3.53 | 34.1 |
| CC[C@H](C)C(NC(=O)[C@H](CC(C)C)NC(=O)OCc1ccccc1)C(=O)C(=O)N[C@@H](Cc1cccnc1)C(N)=O (some centres unmarked) [PHELIX344] | 20.6 | 26.7 |
| CCC(C)C(NC(=O)C(CC(C)C)NC(=O)C(Cc1ccccc1)NC(C)=O)C(=O)C(=O)NC(CCCNC(=N)N)C(N)=O (centres unmarked) [PHELIX345] | 11.3 | 37.1 |
| CCC(C)C(NC(=O)C(CC(C)C)NC(=O)C(Cc1ccccc1)NC(=O)Cc1ccncc1)C(=O)C(=O)NC(CCCNC(=N)N)C(N)=O (centres unmarked) [PHELIX346, N-(1-amino-5-guanidino-1-oxopentan-2-yl)-4-methyl-3-(4-methyl-2-(3-phenyl-2-(2-(pyridin-4-yl)acetamido)propanamido)pentanamido)-2-oxohexanamide] | 3.28 | 1.71 |
| CCC(C)C(NC(=O)C(CC(C)C)NC(=O)OCc1ccccc1)C(=O)C(=O)NCC(=O)NC(Cc1cccc(F)c1)C(N)=O (centres unmarked) [PHELIX348, benzyl (1-((1-((2-((1-amino-3-(3-fluorophenyl)-1-oxopropan-2-yl)amino)-2-oxoethyl)amino)-4-methyl-1,2-dioxohexan-3-yl)amino)-4-methyl-1-oxopentan-2-yl)carbamate] | 2.76 | 1.68 |
| CCC(C)C(NC(=O)C(CC(C)C)NC(=O)OCc1ccccc1)C(=O)C(=O)NCC(=O)NC(Cc1ccc(F)cc1)C(N)=O (centres unmarked) [PHELIX349, benzyl (1-((1-((2-((1-amino-3-(4-fluorophenyl)-1-oxopropan-2-yl)amino)-2-oxoethyl)amino)-4-methyl-1,2-dioxohexan-3-yl)amino)-4-methyl-1-oxopentan-2-yl)carbamate] | 2.11 | 2.27 |
| CCC(C)C(NC(=O)C(CC(C)C)NC(=O)OCc1ccccc1)C(=O)C(=O)NCC(=O)NC(Cc1ccc(C#N)cc1)C(N)=O (centres unmarked) [PHELIX350, benzyl (1-((1-((2-((1-amino-3-(4-cyanophenyl)-1-oxopropan-2-yl)amino)-2-oxoethyl)amino)-4-methyl-1,2-dioxohexan-3-yl)amino)-4-methyl-1-oxopentan-2-yl)carbamate] | 4.2 | 3.45 |
| CCC(C)C(NC(=O)C(CC(C)C)NC(=O)Cc1cccnc1)C(=O)C(=O)NCC(=O)N(C)C(Cc1ccccc1)C(N)=O (centres unmarked) [PHELIX351, N-(2-((1-amino-1-oxo-3-phenylpropan-2-yl)(methyl)amino)-2-oxoethyl)-4-methyl-3-(4-methyl-2-(2-(pyridin-3-yl)acetamido)pentanamido)-2-oxohexanamide] | 0.45 | 0.3 |
| CCC(C)C(NC(=O)C(CC(C)C)NC(=O)CN1CCOCC1)C(=O)C(=O)NCC(=O)N(C)C(Cc1ccccc1)C(N)=O (centres unmarked) [PHELIX352, N-(2-((1-amino-1-oxo-3-phenylpropan-2-yl)(methyl)amino)-2-oxoethyl)-4-methyl-3-(4-methyl-2-(2-morpholinoacetamido)pentanamido)-2-oxohexanamide] | 0.48 | 1.93 |
| CCC(C)C(NC(=O)C(CC(C)C)NC(=O)Cc1ccncc1)C(=O)C(=O)NCC(=O)N(C)C(Cc1ccccc1)C(N)=O (centres unmarked) [PHELIX353, N-(2-((1-amino-1-oxo-3-phenylpropan-2-yl)(methyl)amino)-2-oxoethyl)-4-methyl-3-(4-methyl-2-(2-(pyridin-4-yl)acetamido)pentanamido)-2-oxohexanamide] | 0.55 | 3.03 |
| CCC(C)C(NC(=O)C(CC(C)C)NC(=O)CN1CCOCC1)C(=O)C(=O)NC(Cc1ccc2ccccc2c1)C(N)=O (centres unmarked) [PHELIX354, N-(1-amino-3-(naphthalen-2-yl)-1-oxopropan-2-yl)-4-methyl-3-(4-methyl-2-(2-morpholinoacetamido)pentanamido)-2-oxohexanamide] | 19.6 | 10.1 |
| CCC(C)C(NC(=O)C(CC(C)C)NC(=O)OCc1ccccc1)C(=O)C(=O)NCC(=O)NC(Cc1ccc(OC)cc1)C(N)=O (centres unmarked) [PHELIX355, benzyl (1-((1-((2-((1-amino-3-(4-methoxyphenyl)-1-oxopropan-2-yl)amino)-2-oxoethyl)amino)-4-methyl-1,2-dioxohexan-3-yl)amino)-4-methyl-1-oxopentan-2-yl)carbamate] | 1.57 | 1.71 |
| CCC(C)C(NC(=O)C(CC(C)C)NC(=O)OCc1ccccc1)C(=O)C(=O)NCC(=O)NC(Cc1cccnc1)C(N)=O (centres unmarked) [PHELIX356, benzyl (1-((1-((2-((1-amino-1-oxo-3-(pyridin-3-yl)propan-2-yl)amino)-2-oxoethyl)amino)-4-methyl-1,2-dioxohexan-3-yl)amino)-4-methyl-1-oxopentan-2-yl)carbamate] | 11.2 | 9.17 |
| CCC(C)C(NC(=O)C(CC(C)C)NC(=O)OCc1ccccc1)C(=O)C(=O)NCC(=O)NC(Cc1ccncc1)C(N)=O (centres unmarked) [PHELIX357, benzyl (1-((1-((2-((1-amino-1-oxo-3-(pyridin-4-yl)propan-2-yl)amino)-2-oxoethyl)amino)-4-methyl-1,2-dioxohexan-3-yl)amino)-4-methyl-1-oxopentan-2-yl)carbamate] | 4.39 | 15.5 |
| CCC(C)C(NC(=O)C(CC(C)C)NC(=O)OCc1ccccc1)C(=O)C(=O)NC(Cc1cccc(F)c1)C(N)=O (centres unmarked) [PHELIX359, benzyl (1-((1-((1-amino-3-(3-fluorophenyl)-1-oxopropan-2-yl)amino)-4-methyl-1,2-dioxohexan-3-yl)amino)-4-methyl-1-oxopentan-2-yl)carbamate] | 0.73 | 2.03 |
| CCC(C)C(NC(=O)C(CC(C)C)NC(=O)OCc1ccccc1)C(=O)C(=O)NC(Cc1ccc2ccccc2c1)C(=O)N(C)C (centres unmarked) [PHELIX360, benzyl (1-((1-((1-(dimethylamino)-3-(naphthalen-2-yl)-1-oxopropan-2-yl)amino)-4-methyl-1,2-dioxohexan-3-yl)amino)-4-methyl-1-oxopentan-2-yl)carbamate] | 29.1 | 44.1 |
| CCC(C)C(NC(=O)C(CC(C)C)NC(=O)OCc1ccccc1)C(=O)C(=O)NC(Cc1ccc2ccccc2c1)C(=O)NC1CC1 (centres unmarked) [PHELIX361, benzyl (1-((1-((1-(cyclopropylamino)-3-(naphthalen-2-yl)-1-oxopropan-2-yl)amino)-4-methyl-1,2-dioxohexan-3-yl)amino)-4-methyl-1-oxopentan-2-yl)carbamate] | 23.7 | 41.5 |
